The source made the active and inactive calls. No cut-off for these calls is given here.
Key:
Cannabinoid receptor 1 [1] = target: Cannabinoid receptor 1 (Rattus norvegicus, UniProt P20272); test: Displacement of [3H]SR141716A from CB1 receptor in rat brain; type: tissue-based
[2] = Thermodynamic solubility in USP simulated gastric fluid at pH 1.2 by reversed phase HPLC; type: physicochemical; conditions: simulated gi fluid
[3] = Metabolic stability in rat liver microsomes assessed as intrinsic clearance; type: ADME, Microsome
[4] = Lipophilicity, log D of the compound; type: physicochemical; conditions: octanol/water
[5] = Metabolic stability in human liver microsomes assessed as intrinsic clearance; type: ADME, Microsome
[6] = target: Voltage-gated inwardly rectifying potassium channel KCNH2 (Homo sapiens, UniProt Q12809); test: Inhibition of human ERG
Chain of Voltage-gated inwardly rectifying potassium channel KCNH2 (Q12809 whole entry): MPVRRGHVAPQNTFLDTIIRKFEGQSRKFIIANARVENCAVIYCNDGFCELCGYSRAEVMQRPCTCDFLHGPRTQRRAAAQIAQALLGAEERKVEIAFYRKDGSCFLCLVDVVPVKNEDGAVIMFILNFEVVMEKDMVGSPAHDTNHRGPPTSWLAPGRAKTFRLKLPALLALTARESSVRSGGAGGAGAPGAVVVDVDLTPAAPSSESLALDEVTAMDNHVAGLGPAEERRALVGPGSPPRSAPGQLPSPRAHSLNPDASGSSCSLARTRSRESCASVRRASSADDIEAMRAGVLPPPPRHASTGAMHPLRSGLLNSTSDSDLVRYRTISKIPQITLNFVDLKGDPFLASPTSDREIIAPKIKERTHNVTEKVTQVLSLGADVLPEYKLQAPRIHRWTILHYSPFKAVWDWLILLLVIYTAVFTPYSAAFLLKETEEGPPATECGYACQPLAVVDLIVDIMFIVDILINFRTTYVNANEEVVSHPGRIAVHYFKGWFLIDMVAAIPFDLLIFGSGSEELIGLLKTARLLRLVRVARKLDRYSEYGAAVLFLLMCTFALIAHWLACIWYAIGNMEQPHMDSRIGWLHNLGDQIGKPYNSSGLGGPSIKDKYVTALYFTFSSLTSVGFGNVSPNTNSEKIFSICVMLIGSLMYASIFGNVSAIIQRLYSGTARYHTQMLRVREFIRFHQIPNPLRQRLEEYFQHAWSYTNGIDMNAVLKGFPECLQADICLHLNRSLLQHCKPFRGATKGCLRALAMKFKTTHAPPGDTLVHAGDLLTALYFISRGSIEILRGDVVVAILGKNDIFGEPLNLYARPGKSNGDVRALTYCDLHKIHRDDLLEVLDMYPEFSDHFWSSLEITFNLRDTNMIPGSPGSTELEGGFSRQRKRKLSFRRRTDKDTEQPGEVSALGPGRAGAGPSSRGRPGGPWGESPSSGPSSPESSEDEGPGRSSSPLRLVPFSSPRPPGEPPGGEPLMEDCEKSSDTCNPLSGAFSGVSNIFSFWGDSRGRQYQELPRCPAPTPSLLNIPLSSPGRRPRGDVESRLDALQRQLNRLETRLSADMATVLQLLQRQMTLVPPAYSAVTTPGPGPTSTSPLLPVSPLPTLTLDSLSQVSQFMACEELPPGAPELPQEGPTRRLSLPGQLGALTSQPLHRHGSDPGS

[7] = Thermodynamic solubility in 0.1 M phosphate buffered saline at pH 6.5 by reversed phase HPLC; type: physicochemical; conditions: buffer
[8] = Inhibition of P-gp by cell-based calcein-acetoxymethyl ester assay
[9] = Induction of P-gp-mediated efflux in mdr1a/1b knockout mouse model
Mus musculus [10] = test: Reversal of CP-55940-induced locomotor activity in ICR mouse at 10 mg/kg, sc pretreated 15 mins before CP-55940 challenge measured 25 mins post challenge; type: functional, organism-based; design: dose 10 mg/kg
Mus musculus [11] = test: Reversal of CP-55940-induced catalepsy in ICR mouse at 10 mg/kg, sc pretreated 15 mins before CP-55940 challenge measured 90 mins post challenge; type: functional, organism-based; design: dose 10 mg/kg
[12] = Inhibition of P-gp assessed as ATP turnover at […] by cell-based ATPase assay
Mus musculus [13] = test: Reversal of CP-55940-induced hypothermia in ICR mouse at 10 mg/kg, sc pretreated 15 mins before CP-55940 challenge measured 65 mins post challenge; type: functional; conditions: route subcutaneous
Mus musculus [14] = test: Reversal of CP-55940-induced analgesia in ICR mouse at 10 mg/kg, sc pretreated 15 mins before CP-55940 challenge measured 45 mins post challenge by hot plate method; type: functional; conditions: route subcutaneous
Rattus norvegicus = test: Anorectic activity in Sprague-Dawley rat assessed as reduction in food intake at 10 mg/kg, po measured at 10 mins interval for 2 hrs by fast-induced refeeding assay relative to control; type: functional; design: scale not given: the % may be the effect or the level left
Cannabinoid receptor 1 [15] = target: T1, Cannabinoid receptor 1 (Homo sapiens, UniProt P21554); test: Antagonist activity against human CB1 receptor expressed in CHO-K1 cells by [35S]GTPgamma binding assay; type: functional, cell-based
T1 sequence (P21554 whole entry): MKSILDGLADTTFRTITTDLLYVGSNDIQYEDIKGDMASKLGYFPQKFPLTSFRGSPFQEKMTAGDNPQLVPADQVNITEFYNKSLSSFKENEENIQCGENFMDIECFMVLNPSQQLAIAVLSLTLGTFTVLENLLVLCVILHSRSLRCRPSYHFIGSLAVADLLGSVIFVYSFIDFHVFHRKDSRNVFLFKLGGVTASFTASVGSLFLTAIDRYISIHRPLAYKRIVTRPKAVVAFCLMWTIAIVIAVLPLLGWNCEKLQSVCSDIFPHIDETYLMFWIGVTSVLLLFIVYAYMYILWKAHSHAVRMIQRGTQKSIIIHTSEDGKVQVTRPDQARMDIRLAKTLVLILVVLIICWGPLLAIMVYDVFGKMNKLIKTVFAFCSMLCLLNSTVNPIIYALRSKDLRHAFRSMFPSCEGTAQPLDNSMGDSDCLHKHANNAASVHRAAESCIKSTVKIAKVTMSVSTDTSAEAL

Cannabinoid receptor 1 [16] = target: T1, Cannabinoid receptor 1; test: biochemical; type: cell-based, HEK293

Chain of Cannabinoid receptor 1 (Rattus norvegicus, UniProt P20272) (P20272 whole entry): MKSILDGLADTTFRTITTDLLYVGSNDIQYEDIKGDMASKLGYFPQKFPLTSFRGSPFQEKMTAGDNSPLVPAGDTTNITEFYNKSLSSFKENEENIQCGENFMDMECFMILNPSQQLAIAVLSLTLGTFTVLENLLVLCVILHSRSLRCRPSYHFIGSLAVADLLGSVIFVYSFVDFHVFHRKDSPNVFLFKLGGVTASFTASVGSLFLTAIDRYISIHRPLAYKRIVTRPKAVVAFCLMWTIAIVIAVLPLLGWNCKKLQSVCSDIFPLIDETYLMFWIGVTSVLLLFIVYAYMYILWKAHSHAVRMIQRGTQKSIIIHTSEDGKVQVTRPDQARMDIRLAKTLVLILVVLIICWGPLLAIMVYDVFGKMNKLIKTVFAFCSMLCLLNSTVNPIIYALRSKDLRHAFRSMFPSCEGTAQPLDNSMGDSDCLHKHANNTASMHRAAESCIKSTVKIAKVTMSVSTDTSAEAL

`CN1CCN(c2ncnc3c2nc(-c2ccccc2Cl)n3-c2ccc(Cl)cc2)CC1` gave a Ki (Cannabinoid receptor 1 [1]) of 24 nM, a Thermodynamic solubility [2] of 1290 ugA/ml and a CLint scaled [3] of 90 L/h/kg. For the same compound, the logD [4] was 4.1, the CLint scaled [5] was 18 L/h/kg and the IC50 [6] was 630 nM. For the same compound, the Thermodynamic solubility [7] was 0.33 ugA/ml.

For `CCNC1(C(N)=O)CCN(c2ncnc3c2nc(-c2ccccc2Cl)n3-c2ccc(Cl)cc2)CC1` [OTENABANT], the IC50 [8] was 15000 nM, the Ki (Cannabinoid receptor 1 [1]) was 2.8 nM and the Activity [9] was “Active”. For the same compound, the Activity (Mus musculus [10]) was “Active”, the Activity (Mus musculus [11]) was “Active” and the Activity [12] was “inactive”. The Thermodynamic solubility [2] was 291 ugA/ml, the CLint scaled [3] was 72 L/h/kg and the Activity (Mus musculus [13]) was 73%. The Activity (Mus musculus [14]) was 85%, the logD [4] was 4 and the CLint scaled [5] was 44.4 L/h/kg. For the same compound, the Activity (Rattus norvegicus) was 54%, the IC50 [6] was greater than 3000 nM and the Thermodynamic solubility [7] was 1.3 ugA/ml.

`Cc1c(C(=O)NN2CCCCC2)nn(-c2ccc(Cl)cc2Cl)c1-c1ccc(Cl)cc1` [RIMONABANT] showed a CLint scaled [3] of 540 L/h/kg.

Compound `Clc1ccc(-n2c(-c3ccccc3Cl)nc3c(N4CCCCC4)ncnc32)cc1` has a Ki (Cannabinoid receptor 1 [1]) of 2.1 nM, a Ki (Cannabinoid receptor 1 [15]) of 1.1 nM and a Thermodynamic solubility [2] of 8.8 ugA/ml. It also gave a CLint scaled [3] of 516 L/h/kg, a logD [4] of 5.4 and a CLint scaled [5] of 186 L/h/kg. For the same compound, the Thermodynamic solubility [7] was less than 0.1 µgA/ml and the Ki (Cannabinoid receptor 1 [16]) was 2.3 nM.

With `Clc1ccc(-n2c(-c3ccc(Cl)cc3Cl)nc3c(NN4CCCCC4)ncnc32)cc1` the Ki (Cannabinoid receptor 1 [1]) was 3.6 nM, the Ki (Cannabinoid receptor 1 [15]) was 1.7 nM and the Thermodynamic solubility [2] was 161 ugA/ml. For the same compound, the CLint scaled [3] was 246 L/h/kg, the logD [4] was 5.3 and the CLint scaled [5] was 102 L/h/kg. It also gave an IC50 [6] of 2700 nM, a Thermodynamic solubility [7] of 1.4 ugA/ml and a Ki (Cannabinoid receptor 1 [16]) of 7.4 nM.

`CN1CCN(c2ncnc3c2nc(-c2ccc(Cl)cc2Cl)n3-c2ccc(Cl)cc2)CC1` showed a Ki (Cannabinoid receptor 1 [1]) of 5.9 nM, a Ki (Cannabinoid receptor 1 [15]) of 1.5 nM and a Thermodynamic solubility [2] of 4930 ugA/ml. It also gave a CLint scaled [3] of 354 L/h/kg, an Activity (Mus musculus [13]) of 4% and an Activity (Mus musculus [14]) of 74%. For the same compound, the logD [4] was 4.8, the CLint scaled [5] was 44.4 L/h/kg and the Activity (Rattus norvegicus) was 25%. It also gave an IC50 [6] of 350 nM, a Thermodynamic solubility [7] of 0.7 ugA/ml and a Ki (Cannabinoid receptor 1 [16]) of 5.2 nM.

For `Clc1ccc(-n2c(-c3ccc(Cl)cc3Cl)nc3c(N4CCCCC4)ncnc32)cc1`, the Ki (Cannabinoid receptor 1 [1]) was 4.2 nM, the Ki (Cannabinoid receptor 1 [15]) was 1.7 nM and the Thermodynamic solubility [2] was 3.5 ugA/ml. For the same compound, the CLint scaled [3] was 4620 L/h/kg, the Activity (Mus musculus [13]) was 29% and the Activity (Mus musculus [14]) was 72%. The logD [4] was 5.9, the CLint scaled [5] was 1680 L/h/kg and the Activity (Rattus norvegicus) was 6%. The IC50 [6] was greater than 3000 nM, the Thermodynamic solubility [7] was less than 0.1 ugA/ml and the Ki (Cannabinoid receptor 1 [16]) was 6.1 nM.

Work on `Clc1ccc(-n2c(-c3ccc(Cl)cc3Cl)nc3c(NC4CCCCC4)ncnc32)cc1` yielded a Ki (Cannabinoid receptor 1 [1]) of 12 nM, a Ki (Cannabinoid receptor 1 [15]) of 1.5 nM and a Thermodynamic solubility [2] of 4.1 ugA/ml. It also gave a CLint scaled [3] of 1440 L/h/kg, a logD [4] of 6.3 and a CLint scaled [5] of 1680 L/h/kg. For the same compound, the Thermodynamic solubility [7] was less than 0.1 ugA/ml and the Ki (Cannabinoid receptor 1 [16]) was 7.1 nM.

— ChEMBL document CHEMBL1139370, “Discovery of 1-[9-(4-chlorophenyl)-8-(2-chlorophenyl)-9H-purin-6-yl]-4-ethylaminopiperidine-4-carboxylic acid amide hydrochloride (CP-945,598), a novel, potent, and selective cannabinoid type 1 receptor antagonist” (J Med Chem, 2009)
